Values joined by “and” are separate entries in the source; they are usually repeats but may differ in a detail not shown here. Equal entries are not always repeated. Results filed as inconclusive are left out.

This note sets out measurements from PubChem BioAssay AID296 (DTP/NCI, 2004).

This assay concerns MX-1 breast xenograft, nude mice, tumor weight T/C. Put plainly: NCI In Vivo Anticancer Drug Screen. Data for tumor model Human Mammary Carcinoma MX-1 Xenograft (intrarenal inoculation) in NU/NU Swiss (nude) mice. The settings on record: endpoint: mean tumor weight change, higher = larger tumour. Put shortly:
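Tumor-bearing mice were treated with test compound alongside a vehicle-treated control group. Survival or tumor size was measured, and activity is expressed as the treated-group value divided by the control-group value.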
(In general: A xenograft is tissue or cells of one species grown in another, often human tumour cells in immunodeficient mice.)

Where [1] appears, read: dose: 0.25 mg/kg/injection, schedule: Q04DX003 (sc), vehicle: saline + alcohol.
[2] abbreviates: dose: 0.5 mg/kg/injection, schedule: Q04DX003 (sc), vehicle: saline + alcohol.
[3] abbreviates: dose: 1.0 mg/kg/injection, schedule: Q04DX003 (sc), vehicle: saline + alcohol.
Setting [4] is: dose: 2.0 mg/kg/injection, schedule: Q04DX003 (sc), vehicle: saline + alcohol.
Setting [5] is: dose: 50.0 mg/kg/injection, schedule: Q04DX003 (sc), vehicle: saline with Tween-80.
Setting [6] is: dose: 300.0 mg/kg/injection, schedule: Q04DX003 (sc), vehicle: saline with Tween-80.
Setting [7] is: dose: 600.0 mg/kg/injection, schedule: Q04DX003 (sc), vehicle: saline with Tween-80.
Setting [8] is: dose: 1200.0 mg/kg/injection, schedule: Q04DX003 (sc), vehicle: saline with Tween-80.
Setting [9] is: dose: 150.0 mg/kg/injection, schedule: Q04DX003 (sc), vehicle: saline with Tween-80.
[10] abbreviates: dose: 75.0 mg/kg/injection, schedule: Q04DX003 (sc), vehicle: saline with Tween-80.
Setting [11] is: dose: 2400.0 mg/kg/injection, schedule: Q04DX003 (sc), vehicle: saline with Tween-80.

With `CCC/C=C/C=C/C(=O)OC1/C(=C/C(=O)OC)CC2CC(C(C)O)OC(=O)CC(O)CC3CC(OC(C)=O)C(C)(C)C(O)(CC4C/C(=C/C(=O)OC)CC(/C=C/C(C)(C)C1(O)O2)O4)O3` (stereo not drawn), the T/C was 103 % of control under setting [1], 111 % of control under setting [2], 70 % of control under setting [3] and 60 % of control under setting [4].

In the case of `COc1cc(OC)c(NC(=O)ON2C(=O)c3ccccc3C2=O)cc1Cl`, the T/C under setting [5] was 95 % of control; the T/C (dose: 100.0 mg/kg/injection, schedule: Q04DX003 (sc), vehicle: saline with Tween-80) is 103 % of control; the T/C (dose: 200.0 mg/kg/injection, schedule: Q04DX003 (sc), vehicle: saline with Tween-80) is 85 % of control; the T/C (dose: 400.0 mg/kg/injection, schedule: Q04DX003 (sc), vehicle: saline with Tween-80) was 114 % of control.

Consider `CO[C@H]1C[C@](C)(O)Cc2cc3c(c(O)c21)C(=O)c1c(O)cc2c(c1C3=O)O[C@@H]1O[C@@]2(C)[C@H](O)[C@@H](N(C)C)[C@@H]1O`, for which the T/C (dose: 3.13 mg/kg/injection, schedule: Q01DX010 (sc), vehicle: other) was 93 % of control; the T/C (dose: 6.25 mg/kg/injection, schedule: Q01DX010 (sc), vehicle: other) is 82 % of control; the T/C (dose: 12.5 mg/kg/injection, schedule: Q01DX010 (sc), vehicle: other) was 43 % of control.

Take `CCCN1COC(OCC)C(C)(C)C1` (stereo not drawn): the T/C was 98 % of control under setting [6], 94 % of control under setting [7] and 73 % of control under setting [8].

On to `COc1ccc([I+]c2cccc(Cl)c2)cc1Cl`, for which the T/C runs as follows: under setting [9], 114 % of control; under setting [6], 100 % of control; under setting [7], 84 % of control; under setting [8], 41 % of control.

On to `COc1cc(C[C@H]2c3cc(OC)c(OC)cc3CCN2C)c(Oc2cc3c(cc2OC)-c2c(OC)c(OC)cc4c2[C@H](C3)N(C)CC4)cc1OC`, for which the T/C (dose: 100.0 mg/kg/injection, schedule: Q01DX010 (sc), vehicle: saline with Tween-80) was 95 % of control; the T/C (dose: 200.0 mg/kg/injection, schedule: Q01DX010 (sc), vehicle: saline with Tween-80) was 67 % of control; the T/C (dose: 400.0 mg/kg/injection, schedule: Q01DX010 (sc), vehicle: saline with Tween-80) is 75 % of control; the T/C (dose: 800.0 mg/kg/injection, schedule: Q01DX010 (sc), vehicle: saline with Tween-80) was 71 % of control.

Turning to `CNNCc1ccc(C(=O)NC(C)C)cc1`, the T/C is 57 % of control and 69 % of control (dose: 100.0 mg/kg/injection, schedule: Q01DX010 (sc), vehicle: saline); 7 % of control (dose: 400.0 mg/kg/injection, schedule: Q01DX010 (sc), vehicle: saline).

Turning to `CCC1=C2C(=O)c3ccccc3C2=C(C)S(=O)(=O)O1`, the T/C was 122 % of control under setting [6], 104 % of control under setting [7] and 106 % of control under setting [8].

As for `Nc1nc(N)c2c(ccc3c2ccn3Cc2cccc([N+](=O)[O-])c2)n1`, the T/C reads like this: (dose: 37.5 mg/kg/injection, schedule: Q04DX003 (sc), vehicle: saline with Tween-80) 98 % of control; under setting [10], 94 % of control.

As to `O=C1c2c(O)ccc(O)c2C(=O)c2c(NCCNCCO)ccc(NCCNCCO)c21`, the T/C is 40 % of control (dose: 0.5 mg/kg/injection, schedule: Q01DX010 (sc), vehicle: acid diluted with saline); 62 % of control (dose: 2.0 mg/kg/injection, schedule: Q01DX010 (sc), vehicle: acid diluted with saline); 59 % of control (dose: 2.5 mg/kg/injection, schedule: Q04DX003 (sc), vehicle: other); 28 % of control (dose: 2.5 mg/kg/injection, schedule: Q04DX003 (sc), vehicle: water); 34 % of control (dose: 5.0 mg/kg/injection, schedule: Q04DX003 (sc), vehicle: other); 9 % of control and 29 % of control (dose: 5.0 mg/kg/injection, schedule: Q04DX003 (sc), vehicle: water). Further, the T/C reads like this: (dose: 10.0 mg/kg/injection, schedule: Q04DX003 (sc), vehicle: other) 8 % of control; (dose: 10.0 mg/kg/injection, schedule: Q04DX003 (sc), vehicle: water) 6 % of control.

Take `CCCCCCCCCCCCCCC/C([O-])=N/[N+](C)(C)CC(C)O` (stereo not drawn): the T/C runs as follows: (dose: 200.0 mg/kg/injection, schedule: Q04DX003 (sc), vehicle: Klucel (hydroxypropylcellulose) (HPC)) 95 % of control; (dose: 800.0 mg/kg/injection, schedule: Q04DX003 (sc), vehicle: Klucel (hydroxypropylcellulose) (HPC)) 100 % of control; (dose: 1600.0 mg/kg/injection, schedule: Q04DX003 (sc), vehicle: Klucel (hydroxypropylcellulose) (HPC)) 91 % of control; (dose: 2400.0 mg/kg/injection, schedule: Q04DX003 (sc), vehicle: Klucel (hydroxypropylcellulose) (HPC)) 63 % of control.

On to `CC(Cc1ccc(O)cc1)NCC(O)c1ccc(O)c(O)c1` (stereo not drawn), for which the T/C under setting [10] was 91 % of control; the T/C under setting [9] is 96 % of control; the T/C under setting [7] was 67 % of control; the T/C under setting [8] is 82 % of control; the T/C under setting [11] was 45 % of control.

Consider `CO[C@H](C(=O)[C@@H](O)[C@@H](C)O)[C@@H]1Cc2cc3cc(OC4CC(OC5CC(O)C(O)C(C)O5)C(O)C(C)O4)c(C)c(O)c3c(O)c2C(=O)[C@H]1OC1CC(OC2CC(OC3CC(C)(O)C(O)C(C)O3)C(O)C(C)O2)C(O)C(C)O1` (stereo partly drawn), for which the T/C runs as follows: (dose: 0.25 mg/kg/injection, schedule: Q01DX010 (sc), vehicle: saline) 86 % of control; (dose: 0.25 mg/kg/injection, schedule: Q04DX003 (sc), vehicle: saline) 105 % of control; (dose: 0.5 mg/kg/injection, schedule: Q04DX003 (sc), vehicle: saline) 72 % of control; (dose: 0.75 mg/kg/injection, schedule: Q04DX003 (sc), vehicle: saline) 66 % of control; (dose: 1.0 mg/kg/injection, schedule: Q04DX003 (sc), vehicle: saline) 42 % of control; (dose: 1.5 mg/kg/injection, schedule: Q04DX003 (sc), vehicle: saline) 26 % of control. Moreover, the T/C (dose: 2.0 mg/kg/injection, schedule: Q01DX010 (sc), vehicle: saline) is -98 % of control and the T/C (dose: 2.0 mg/kg/injection, schedule: Q04DX003 (sc), vehicle: saline) was -34 % of control.

As for `COC(=O)[C@@]12OC[C@]34[C@H]([C@@H](O)[C@@H]1O)[C@@]1(C)CC(=O)C(O)=C(C)[C@@H]1C[C@H]3OC(=O)[C@H](OC(=O)/C=C(\C)C(C)C)[C@@H]24`, the T/C is 52 % of control under setting [1], 158 % of control under setting [2], 100 % of control under setting [3] and 90 % of control under setting [4].

Take `CC(C)(C)N1CC1CNC(=O)C(=O)NCC1CN1C(C)(C)C` (stereo not drawn): the T/C under setting [5] was -41 % of control and -29 % of control.

In the case of `O=C(Nc1cccc2c(OC(=O)C(Cl)Cl)c(N=Nc3ccc(S(=O)(=O)Nc4nccs4)cc3)cc(N=Nc3ccc(S(=O)(=O)Nc4nccs4)cc3)c12)C(Cl)Cl` (tested in a mixture with another compound), the T/C is 111 % of control under setting [6], 103 % of control under setting [7], 109 % of control under setting [8] and 109 % of control under setting [11].
